Results reported in patent publication US20220225627A1, “A NUTRITIONAL COMPOSITION FOR USE TO ENHANCE EXECUTIVE FUNCTION” (SOCIETE DES PRODUITS NESTLE S.A., priority 2019, published 2022).

Experiments:
Assay type in all cases: in vivo
[1] = tested on: myelin basic protein (MBP); experiment: myelin gene expression in brain samples (QuantSeq 3′ mRNA-Seq), MBP; conditions: mice receiving milk without 6′SL, fold change relative to control mice receiving milk with 6′SL; FIG. 4
Text: (§1) Adult wild-type (WT) B6.129 and heterozygous (HZ) B6.129-St6gal1^tm2Jxm breeding pairs (four males and four females and three males and four females, respectively) were purchased from a commercial breeder (The Jackson Laboratory). Upon arrival, same-sex mice were housed in same-sex groups of 2-3 in type-1 polycarbonate cages (33.0×13.0×14.0 cm) equipped with sawdust bedding, an enrichment bag (Mucedola, Settimo Milanese, Italy), metal top and ad libitum water and food pellets (Mucedola, Settimo Milanese, Italy). Mice were maintained on a reversed 12-h-light-dark cycle (light on at 7:00 PM) in an air-conditioned room (temperature 21±1C and relative humidity 60±10%). Two weeks after arrival, breeding triads (one male, two females) were formed. After two weeks of mating, male mice were removed and females were housed individually in standard type-1 cages. […]
(§2) Total RNA is extracted using the Agencourt RNAdvance Tissue Kit (Beckman Coulter): Lysis was done in 450 μL. […] Elution volume 50 μL Quantification is performed using Quant It Ribogreen assay (Life Technologies) QC assessment is performed using Standard sensitivity RNA kit on Fragment Analyzer 96 (Agilent). […]
(§3) Library generation starts with oligodT priming containing the Illumina-specific Read 2 linker sequence. […] The random primer contains the Illumina-specific Read 1linker sequence. […]

[2] = tested on: genes related to myelination; myelination and myelin sheath pathway; experiment: expression of myelination-related genes and KEGG pathways in brain samples; conditions: mice receiving milk without 6′SL
Text: Adult wild-type (WT) B6.129 and heterozygous (HZ) B6.129-St6gal1^tm2Jxm breeding pairs (four males and four females and three males and four females, respectively) were purchased from a commercial breeder (The Jackson Laboratory). Upon arrival, same-sex mice were housed in same-sex groups of 2-3 in type-1 polycarbonate cages (33.0×13.0×14.0 cm) equipped with sawdust bedding, an enrichment bag (Mucedola, Settimo Milanese, Italy), metal top and ad libitum water and food pellets (Mucedola, Settimo Milanese, Italy). Mice were maintained on a reversed 12-h-light-dark cycle (light on at 7:00 PM) in an air-conditioned room (temperature 21±1C and relative humidity 60±10%). Two weeks after arrival, breeding triads (one male, two females) were formed. After two weeks of mating, male mice were removed and females were housed individually in standard type-1 cages. Females were checked daily for delivery and the day in which they gave birth was designated as postnatal day (PND) 0. Apart from cage cleaning once a week, dams and their offspring were kept undisturbed until weaning (on PND 25). At weaning, male and female mice were separated and located in same-sex same-litter cages; additionally, male mice were marked through ear clipping and the ear tissue removed through this procedure was used for genotyping. Homozygous knock-out (KO) and WT mice were then used for the experiments.
Fourteen wild type (WT) and 14 St6Gal1 Homozygous (hereafter KO) female mice have been mated with seven WT and seven KO male mice respectively. Out of this batch, 10 WT and 10 KO dams gave birth to a viable offspring. […]
as §2, §3

[3] = tested on: myelin-associated glycoprotein (MAG); experiment: myelin gene expression in brain samples (QuantSeq 3′ mRNA-Seq), MAG; conditions: mice receiving milk without 6′SL, fold change relative to control mice receiving milk with 6′SL; FIG. 4
Text: as §1, §2, §3

## CC(=O)N[C@H]1[C@H]([C@H](O)[C@H](O)CO)O[C@@](OC[C@H]2O[C@@H](O[C@H]3[C@H](O)[C@@H](O)C(O)O[C@@H]3CO)[C@H](O)[C@@H](O)[C@H]2O)(C(=O)O)C[C@@H]1O (stereo partly drawn) [6′SL, (6R)-5-Acetamido-3,5-dideoxy-6-[(1R,2R)-1,2,3-trihydroxypropyl]-β-L-threo-hex-2-ulopyranonosyl-(2->6)-β-D-galactopyranosyl-(1->4)-D-glucopyranose]
[1]
  reduction of the expression of myelin basic protein (MBP): 50%
[2]; adulthood, and hippocampus at both ages
  expression of multiple genes related to myelination: neither observed
[2]; only in prefrontal cortex during early life
  KEGG myelination and myelin sheath pathway: down-regulated
[2]; prefrontal cortex during early life
  expression of multiple genes related to myelination: reduced
[3]
  reduction of the expression of myelin-associated glycoprotein (MAG): 50%
